Measurements reported in PubChem BioAssay AID1259407 (Chemical Carcinogenesis Research Information System (CCRIS), 2018).
Active and inactive are the calls of the source. The rule behind the calls is not given here.

Test system: CCRIS mutagenicity, Ames/micronucleus/aberration tests
Assay: CCRIS mutagenicity studies
[1] = Test System: AMES SALMONELLA TYPHIMURIUM, Strain/Indicator: TA98, Metabolic Activation: NONE, Method: PREINCUBATION
[2] = Test System: AMES SALMONELLA TYPHIMURIUM, Strain/Indicator: TA98, Metabolic Activation: RAT, LIVER, S-9, AROCLOR 1254, Method: STANDARD PLATE
[3] = Test System: AMES SALMONELLA TYPHIMURIUM, Strain/Indicator: TA100, Metabolic Activation: NONE, Method: PREINCUBATION
[4] = Test System: AMES SALMONELLA TYPHIMURIUM, Strain/Indicator: TA100, Metabolic Activation: RAT, LIVER, S-9, AROCLOR 1254, Method: STANDARD PLATE
[5] = Test System: AMES SALMONELLA TYPHIMURIUM, Strain/Indicator: TA98, Metabolic Activation: NONE, Method: STANDARD PLATE
[6] = Test System: AMES SALMONELLA TYPHIMURIUM, Strain/Indicator: TA100, Metabolic Activation: NONE, Method: STANDARD PLATE
[7] = Test System: AMES SALMONELLA TYPHIMURIUM, Strain/Indicator: TA1537, Metabolic Activation: NONE, Method: STANDARD PLATE

For `CC(=O)c1c(C)c([N+](=O)[O-])c(C(C)(C)C)c([N+](=O)[O-])c1C`, the mutagenic call (Test System: AMES SALMONELLA TYPHIMURIUM, Strain/Indicator: TA97, Metabolic Activation: HAMSTER, LIVER, S-9, AROCLOR 1254 (10 OR 30%), Method: PREINCUBATION) was “inactive; negative”, the mutagenic call (Test System: AMES SALMONELLA TYPHIMURIUM, Strain/Indicator: TA97, Metabolic Activation: NONE, Method: PREINCUBATION) was “inactive; negative” and the mutagenic call (Test System: AMES SALMONELLA TYPHIMURIUM, Strain/Indicator: TA97, Metabolic Activation: RAT, LIVER, S-9, AROCLOR 1254 (10 OR 30%), Method: PREINCUBATION) was “inactive; negative”. The mutagenic call (Test System: AMES SALMONELLA TYPHIMURIUM, Strain/Indicator: TA98, Metabolic Activation: HAMSTER, LIVER, S-9, AROCLOR 1254 (10 OR 30%), Method: PREINCUBATION) was “inactive; negative”, the mutagenic call [1] was “inactive; negative” and the mutagenic call (Test System: AMES SALMONELLA TYPHIMURIUM, Strain/Indicator: TA98, Metabolic Activation: RAT, LIVER, S-9, AROCLOR 1254 (10 OR 30%), Method: PREINCUBATION) was “inactive; negative”. The mutagenic call (Test System: AMES SALMONELLA TYPHIMURIUM, Strain/Indicator: TA98, Metabolic Activation: RAT, LIVER, S-9, AROCLOR 1254, Method: PREINCUBATION) was “inactive; negative”, the mutagenic call [2] was “inactive; negative” and the mutagenic call (Test System: AMES SALMONELLA TYPHIMURIUM, Strain/Indicator: TA100, Metabolic Activation: HAMSTER, LIVER, S-9, AROCLOR 1254 (10 OR 30%), Method: PREINCUBATION) was “inactive; negative”. For the same compound, the mutagenic call [3] was “inactive; negative”, the mutagenic call (Test System: AMES SALMONELLA TYPHIMURIUM, Strain/Indicator: TA100, Metabolic Activation: RAT, LIVER, S-9, AROCLOR 1254 (10 OR 30%), Method: PREINCUBATION) was “inactive; negative” and the mutagenic call (Test System: AMES SALMONELLA TYPHIMURIUM, Strain/Indicator: TA100, Metabolic Activation: RAT, LIVER, S-9, AROCLOR 1254, Method: PREINCUBATION) was “inactive; negative”. For the same compound, the mutagenic call [4] was “inactive; negative”, the mutagenic call (Test System: AMES SALMONELLA TYPHIMURIUM, Strain/Indicator: TA1535, Metabolic Activation: HAMSTER, LIVER, S-9, AROCLOR 1254 (10 OR 30%), Method: PREINCUBATION) was “inactive; negative” and the mutagenic call (Test System: AMES SALMONELLA TYPHIMURIUM, Strain/Indicator: TA1535, Metabolic Activation: NONE, Method: PREINCUBATION) was “inactive; negative”. For the same compound, the mutagenic call (Test System: AMES SALMONELLA TYPHIMURIUM, Strain/Indicator: TA1535, Metabolic Activation: RAT, LIVER, S-9, AROCLOR 1254 (10 OR 30%), Method: PREINCUBATION) was “inactive; negative”, the mutagenic call (Test System: MOUSE LYMPHOMA, Strain/Indicator: L5178Y (TK+/TK-), Metabolic Activation: NONE, Method: SUSPENSION/PLATE) was “inactive; negative” and the mutagenic call (Test System: MOUSE LYMPHOMA, Strain/Indicator: L5178Y (TK+/TK-), Metabolic Activation: RAT, LIVER, S-9, AROCLOR 1242 AND AROCLOR 1254 (2:1), Method: SUSPENSION/PLATE) was “inactive; negative”. The mutagenic call (Test System: UDS RAT PRIMARY HEPATOCYTES, Strain/Indicator: THY INCORP, Metabolic Activation: NONE) was “inactive; negative”.

`COC(=O)c1cc2c(c3c1ccc1c(OC)cccc13)OCO2` was tested, and the mutagenic call [5] was “active; positive”, the mutagenic call [6] was “active; positive” and the mutagenic call (Test System: AMES SALMONELLA TYPHIMURIUM, Strain/Indicator: TA102, Metabolic Activation: NONE, Method: STANDARD PLATE) was “active; positive”. The mutagenic call [7] was “active; positive” and the mutagenic call (Test System: AMES SALMONELLA TYPHIMURIUM, Strain/Indicator: TM677/8-AZAGUANINE, Metabolic Activation: NONE, Method: SUSPENSION/PLATE) was “inactive; negative”.

In the case of `CCc1ccccc1[N+](=O)[O-]`, the mutagenic call [1] is reported as “inactive; negative”, the mutagenic call (Test System: AMES SALMONELLA TYPHIMURIUM, Strain/Indicator: TA98, Metabolic Activation: RAT, LIVER, S-9, KANECHLOR 500, Method: PREINCUBATION) is reported as “inactive; negative” and the mutagenic call [3] is reported as “inactive; negative”. The mutagenic call (Test System: AMES SALMONELLA TYPHIMURIUM, Strain/Indicator: TA100, Metabolic Activation: RAT, LIVER, S-9, KANECHLOR 500, Method: PREINCUBATION) was “inactive; negative”.

`c1ccc2c(c1)c1cccc3c4ccccc4c4cccc2c4c13` was tested, and the mutagenic call (Test System: HUMAN H1A1V2 CELLS, Strain/Indicator: TK LOCUS, Metabolic Activation: NONE, Method: SUSPENSION/PLATE) was “active; positive”.

With `c1ccc2c(c1)-c1ccccc1C1OC21` (stereo unspecified) the mutagenic call [5] was “active; positive”.

`O=C(ON(OCc1ccccc1)C(=O)c1ccccc1)c1ccc([N+](=O)[O-])cc1` was tested, and the mutagenic call [6] was “active; positive” and the mutagenic call (Test System: AMES SALMONELLA TYPHIMURIUM, Strain/Indicator: TA100, Metabolic Activation: RAT, S-9, AROCLOR, Method: STANDARD PLATE) was “active; positive”.

For `O=C(/C=N/O)Nc1ccccc1`, the mutagenic call (Test System: AMES SALMONELLA TYPHIMURIUM, Strain/Indicator: TA98, Metabolic Activation: HAMSTER, LIVER, S-9, AROCLOR 1254, Method: STANDARD PLATE) was “inactive; negative”, the mutagenic call [5] was “inactive; negative” and the mutagenic call [2] was “inactive; negative”. For the same compound, the mutagenic call (Test System: AMES SALMONELLA TYPHIMURIUM, Strain/Indicator: TA100, Metabolic Activation: HAMSTER, LIVER, S-9, AROCLOR 1254, Method: STANDARD PLATE) was “inactive; negative”, the mutagenic call [6] was “inactive; negative” and the mutagenic call [4] was “inactive; negative”. The mutagenic call (Test System: AMES SALMONELLA TYPHIMURIUM, Strain/Indicator: TA1535, Metabolic Activation: HAMSTER, LIVER, S-9, AROCLOR 1254, Method: STANDARD PLATE) was “inactive; negative”, the mutagenic call (Test System: AMES SALMONELLA TYPHIMURIUM, Strain/Indicator: TA1535, Metabolic Activation: NONE, Method: STANDARD PLATE) was “inactive; negative” and the mutagenic call (Test System: AMES SALMONELLA TYPHIMURIUM, Strain/Indicator: TA1535, Metabolic Activation: RAT, LIVER, S-9, AROCLOR 1254, Method: STANDARD PLATE) was “inactive; negative”. The mutagenic call (Test System: AMES SALMONELLA TYPHIMURIUM, Strain/Indicator: TA1537, Metabolic Activation: HAMSTER, LIVER, S-9, AROCLOR 1254, Method: STANDARD PLATE) was “inactive; negative”, the mutagenic call [7] was “inactive; negative” and the mutagenic call (Test System: AMES SALMONELLA TYPHIMURIUM, Strain/Indicator: TA1537, Metabolic Activation: RAT, LIVER, S-9, AROCLOR 1254, Method: STANDARD PLATE) was “inactive; negative”. The mutagenic call (Test System: MOUSE LYMPHOMA, Strain/Indicator: L5178Y (TK+/TK-), Metabolic Activation: RAT, LIVER, S-9, AROCLOR 1254, Method: SUSPENSION/PLATE) was “inactive; negative. reevaluation of results: negative” and the mutagenic call (Test System: Mouse lymphoma, Strain/Indicator: L5178Y (tk+/tk-), Metabolic Activation: None, Method: Suspension/plate) was “active; equivocal (previous evaluation: positive)”.

For `O=[N+]([O-])c1ccc2cc3ccccc3cc2c1`, the mutagenic call [1] was “active; positive”, the mutagenic call [5] was “active; positive” and the mutagenic call (Test System: AMES SALMONELLA TYPHIMURIUM, Strain/Indicator: TA98, Metabolic Activation: RAT, LIVER, S-9, AROCLOR 1254 (10%), Method: PREINCUBATION) was “active; positive”. For the same compound, the mutagenic call [2] was “active; positive”, the mutagenic call [3] was “active; positive” and the mutagenic call (Test System: AMES SALMONELLA TYPHIMURIUM, Strain/Indicator: TA100, Metabolic Activation: RAT, LIVER, S-9, AROCLOR 1254 (10%), Method: PREINCUBATION) was “active; positive”.

`Nc1ccc2c(c1)[nH]c1ccccc12` was tested, and the mutagenic call [5] was “active; positive”, the mutagenic call (Test System: AMES SALMONELLA TYPHIMURIUM, Strain/Indicator: TA98, Metabolic Activation: RAT, LIVER, S-9, PHENOBARBITAL, Method: STANDARD PLATE) was “active; positive” and the mutagenic call [6] was “inactive; negative”. For the same compound, the mutagenic call (Test System: AMES SALMONELLA TYPHIMURIUM, Strain/Indicator: TA100, Metabolic Activation: RAT, LIVER, S-9, PHENOBARBITAL, Method: STANDARD PLATE) was “active; positive”, the mutagenic call [7] was “inactive; negative” and the mutagenic call (Test System: AMES SALMONELLA TYPHIMURIUM, Strain/Indicator: TA1538, Metabolic Activation: NONE, Method: STANDARD PLATE) was “active; positive”. For the same compound, the mutagenic call (Test System: AMES SALMONELLA TYPHIMURIUM, Strain/Indicator: TA1538, Metabolic Activation: RAT, LIVER, S-9, PHENOBARBITAL, Method: STANDARD PLATE) was “active; positive”, the mutagenic call (Test System: AMES SALMONELLA TYPHIMURIUM, Strain/Indicator: TA1977, Metabolic Activation: NONE, Method: STANDARD PLATE) was “inactive; negative” and the mutagenic call (Test System: AMES SALMONELLA TYPHIMURIUM, Strain/Indicator: TA1977, Metabolic Activation: RAT, LIVER, S-9, PHENOBARBITAL, Method: STANDARD PLATE) was “inactive; negative”.
